Experimental data: patent US5280125A, “Chemical process for the preparation of 3-alkylated indole” (Imperial Chemical Industries PLC, priority 1990, dated 1994)

What was measured:
leukotriene LTD4 = assay: guinea-pig aerosol test (LTD4 aerosol challenge, onset of dyspnea); assay type: in vivo
Experimental: According to this procedure, guinea-pigs are pre-dosed with test compound as a solution in poly(ethylene glycol) (generally 1 hour) before an aerosol challenge of leukotriene LTD4 (starting with 2 ml of a 30 microgram/ml solution) and the effect of the test compound on the average time of leukotriene initiated change in breathing pattern (such as onset of dyspnea) recorded and compared with that in undosed, control guinea-pigs. Percent protection engendered by a test compound was calculated from the time delay to the onset of dyspnea compared to that for control animals.

LTC4, LTD4 and/or LTE4 = assay: in vitro leukotriene antagonist tests (guinea-pig tracheal strip preparation or receptor-ligand binding assay); conditions: in one of the above in vitro tests

| concentration showing statistically significant activity as LTC4, LTD4 and/or LTE4 antagonist (LTC4, LTD4 and/or LTE4) | SMILES | ED50 (leukotriene LTD4; Cavia porcellus, 1 h, oral administration, protection against LTD4 aerosol-induced dyspnea) | untoward side-effects (leukotriene LTD4; oral, at several multiples of the minimum effective dose) |
| --- | --- | --- | --- |
|  | COc1cc(C(=O)NS(=O)(=O)c2ccccc2C)ccc1Cc1cn(C)c2ccc(C(=O)NC[C@H](C)CC(F)(F)F)cc12 [compound of formula I substantially in the form of the (R)-enantiomer, (R)-4-[5-(N-[4,4,4-trifluoro-2-methylbutyl]carbamoyl)-1-methylindol-3-yl-methyl]-3-methoxy-N-o-tolylsulphonylbenzamide] | 1.1 µmol/kg | without any indication of untoward side-effects |
| ≤ 10^-8 M | COc1cc(C(=O)NS(=O)(=O)c2ccccc2C)ccc1Cc1cn(C)c2ccc(C(=O)NCC(C)CC(F)(F)F)cc12 (stereo not drawn) [compound of formula I, 4-[5-(N-[4,4,4-trifluoro-2-methylbutyl]carbamoyl)-1-methylindol-3-ylmethyl]-3-methoxy-N-o-tolylsulphonylbenzamide] |  |  |
